Key:
Assay type in all cases: cell-based
NIH 3T3 Non-tumor = assay: Cytotoxicity assay (Cell Titer GLO, 72 hours), NIH3T3; details: Mus musculus, NIH 3T3 Non-tumor cells, cell viability by Cell Titer GLO, read-out: GC50 (the source's name)
Method: (§1) Cell lines used: CT26, B16F10 and NIH3T3
(§2) Concentration range of drug to be tested: 50 nM to 50 uM
(§3) Cells were plated in a 96 well plate and when they are about 50% confluent the drug was added in DMSO so that the final concentration of DMSO is 0.1% (v/v) of less and incubated for 72 hours. The cell viability is then determined using Cell Titer GLO.

CT26 Colon Cancer = assay: Cytotoxicity assay (Cell Titer GLO, 72 hours), CT26; details: Mus musculus, CT26 Colon Cancer cells, cell viability by Cell Titer GLO, read-out: GC50 (the source's name)
Method: as §1, §2, §3

B16F10 Melanoma = assay: Cytotoxicity assay (Cell Titer GLO, 72 hours), B16F10; details: Mus musculus, B16-F10, B16F10 Melanoma cells, cell viability by Cell Titer GLO, read-out: GC50 (the source's name)
Method: as §1, §2, §3

| Structure (SMILES) | IC50 (NIH 3T3 Non-tumor) [µM] | IC50 (CT26 Colon Cancer) [µM] | IC50 (B16F10 Melanoma) [µM] |
| --- | --- | --- | --- |
| C=CC(=O)NCCSc1ccc(O)c(O)c1 [Compound 10, N-[2-(3,4-dihydroxyphenyl)sulfanylethyl]propenamide] | > 50 | > 50 | > 50 |
| C=CC(=O)NCCSc1cc(O)ccc1O [Compound 12, N-[2-(2,5-dihydroxyphenyl)sulfanylethyl]propenamide] | 3.3 | 14.2 | > 50 |
| C=CC(=O)NCCSc1cccc(O)c1O [Compound 14, N-[2-(2,3-dihydroxyphenyl)sulfanylethyl]propenamide] | > 50 | 9.9 | 4.7 |

Reference: patent US20190062272A1, “SMALL MOLECULES FOR IMMUNOGENIC TREATMENT OF CANCER” (Capten Therapeutics Inc., priority 2017, published 2019)
